These results are taken from paper PMC8231556, “Inhibiting Endothelial Cell Function in Normal and Tumor Angiogenesis Using BMP Type I Receptor Macrocyclic Kinase Inhibitors” (Cancers, 2021).

Experiment in all cases: radiometric kinase profiling (33 PanQinase)
Assay type in all cases: biochemical

In one test the target is T1, MAPKAPK2 (Homo sapiens, UniProt P49137).
T1 construct: purchased ProQinase (33PanQinase Activity Assay)
Particulars: read-out: Inhibitory effect (%) MAPKAPK2. The method, then:
(§1) The kinase inhibition profile of the compounds was determined by testing 96 protein kinases’ activity using a radiometric protein kinase assay (33 PanQinase® Activity Assay, Proqinase, Germany). In brief, 10 µL of non-radioactive ATP solution (in H2O), 25 µL of assay buffer/[γ-33 P]-ATP mixture, 5 µL of 0.1 μM the tested compound in 10% DMSO and 10 µL of enzyme/substrate were mixed in 96-well FlashPlatesTM (Perkin Elmer, Boston, MA, USA). The reaction was conducted at 30 °C for 60 min. To stop the reaction, 50 µL of 2% (v/v) H3PO4 was added into the protein kinase reaction cocktails. After which, with 200 µL 0.9% (w/v) NaCl twice, the incorporation of ^33 Pi (counting of “cpm”) was determined with a microplate scintillation counter (Wallac Microbeta, Boston, MA, USA). All protein kinase assays were performed using a BeckmanCoulter Biomek 2000/SL robotic system (Brea, CA, USA). The residual activity (in %) for each compound was normalized to 100% enzyme activity (untreated control) and background (negative control).

The next test concerns the target T2, PAK2 (Homo sapiens, UniProt Q13177).
T2 construct: purchased ProQinase (33PanQinase Activity Assay)
Particulars: read-out: Inhibitory effect (%) PAK2. Here is the method:
as §1

A further test addresses T3, EGFR (Homo sapiens, UniProt P00533).
T3 construct: purchased Proqinase, Germany
Particulars: read-out: Inhibitory effect (%) EGFR. Here is the method: as §1

For a further test, the target named is T4, CDK8_cyclinC (Homo sapiens, UniProt P49336).
T4 construct: purchased Proqinase, Germany
Particulars: read-out: Inhibitory effect (%) CDK8_cyclinC. Here is the method: as §1

Another test has as its target T5, DAPK1 (Homo sapiens, UniProt P53355).
T5 construct: purchased Proqinase, Germany
Particulars: read-out: Inhibitory effect (%) DAPK1. The method, then: as §1

The target of the next test is T6, GSG2 (Homo sapiens, UniProt Q8TF76).
T6 construct: purchased ProQinase (33PanQinase Activity Assay)
T6 sequence (Q8TF76 1-798): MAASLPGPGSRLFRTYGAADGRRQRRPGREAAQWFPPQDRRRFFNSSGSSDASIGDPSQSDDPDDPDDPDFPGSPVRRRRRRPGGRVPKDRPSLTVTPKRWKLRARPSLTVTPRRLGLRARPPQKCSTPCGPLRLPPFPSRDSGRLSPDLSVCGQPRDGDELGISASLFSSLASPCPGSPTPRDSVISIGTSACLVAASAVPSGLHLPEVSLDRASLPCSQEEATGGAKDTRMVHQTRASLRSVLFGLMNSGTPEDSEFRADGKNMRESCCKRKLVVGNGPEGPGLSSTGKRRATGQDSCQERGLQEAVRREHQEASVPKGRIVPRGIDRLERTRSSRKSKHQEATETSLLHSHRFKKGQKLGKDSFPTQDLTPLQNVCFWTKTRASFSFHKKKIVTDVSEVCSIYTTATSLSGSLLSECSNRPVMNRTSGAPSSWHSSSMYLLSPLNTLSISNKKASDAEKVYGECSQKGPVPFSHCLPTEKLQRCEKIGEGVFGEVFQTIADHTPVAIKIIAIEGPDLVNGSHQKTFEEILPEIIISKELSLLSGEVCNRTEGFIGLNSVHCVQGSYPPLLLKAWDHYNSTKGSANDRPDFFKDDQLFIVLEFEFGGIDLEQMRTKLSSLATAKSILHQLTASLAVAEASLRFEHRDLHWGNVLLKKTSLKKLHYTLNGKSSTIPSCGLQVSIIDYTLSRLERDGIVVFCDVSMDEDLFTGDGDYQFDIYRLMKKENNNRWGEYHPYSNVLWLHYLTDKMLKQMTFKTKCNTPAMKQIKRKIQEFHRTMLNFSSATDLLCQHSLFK
Particulars: read-out: Inhibitory effect (%) GSG2. Here is the method:
as §1

The target in the next test is T7, DCLK2 (Homo sapiens, UniProt Q8N568).
T7 construct: purchased Proqinase, Germany
T7 sequence (Q8N568 1-766): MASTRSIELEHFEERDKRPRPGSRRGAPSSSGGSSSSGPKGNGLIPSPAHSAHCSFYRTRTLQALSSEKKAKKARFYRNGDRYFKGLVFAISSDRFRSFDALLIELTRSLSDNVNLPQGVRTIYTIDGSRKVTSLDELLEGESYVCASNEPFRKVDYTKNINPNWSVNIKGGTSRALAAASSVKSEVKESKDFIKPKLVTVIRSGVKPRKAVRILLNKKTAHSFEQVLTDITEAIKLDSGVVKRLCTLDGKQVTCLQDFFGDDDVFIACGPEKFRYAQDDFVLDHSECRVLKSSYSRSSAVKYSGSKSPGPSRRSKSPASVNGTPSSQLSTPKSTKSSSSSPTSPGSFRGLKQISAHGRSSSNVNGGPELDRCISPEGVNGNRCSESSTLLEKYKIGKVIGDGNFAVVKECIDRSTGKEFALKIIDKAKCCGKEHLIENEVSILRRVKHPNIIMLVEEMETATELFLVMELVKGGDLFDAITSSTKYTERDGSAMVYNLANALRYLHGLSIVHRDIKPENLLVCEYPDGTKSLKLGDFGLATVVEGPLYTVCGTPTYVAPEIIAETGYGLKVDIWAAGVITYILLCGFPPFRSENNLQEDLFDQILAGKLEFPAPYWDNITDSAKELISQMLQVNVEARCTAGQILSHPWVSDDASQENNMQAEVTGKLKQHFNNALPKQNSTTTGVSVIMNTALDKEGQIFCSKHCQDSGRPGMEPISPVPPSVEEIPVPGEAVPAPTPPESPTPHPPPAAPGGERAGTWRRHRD
Particulars: read-out: Inhibitory effect (%) DCLK2. The method, then:
as §1

Another test concerns the target T8, MAP2K1 (Homo sapiens, UniProt Q02750).
T8 construct: purchased ProQinase (33PanQinase Activity Assay)
Particulars: read-out: Inhibitory effect (%) MAP2K1. Here is the method: as §1

T1 sequence (P49137 whole entry): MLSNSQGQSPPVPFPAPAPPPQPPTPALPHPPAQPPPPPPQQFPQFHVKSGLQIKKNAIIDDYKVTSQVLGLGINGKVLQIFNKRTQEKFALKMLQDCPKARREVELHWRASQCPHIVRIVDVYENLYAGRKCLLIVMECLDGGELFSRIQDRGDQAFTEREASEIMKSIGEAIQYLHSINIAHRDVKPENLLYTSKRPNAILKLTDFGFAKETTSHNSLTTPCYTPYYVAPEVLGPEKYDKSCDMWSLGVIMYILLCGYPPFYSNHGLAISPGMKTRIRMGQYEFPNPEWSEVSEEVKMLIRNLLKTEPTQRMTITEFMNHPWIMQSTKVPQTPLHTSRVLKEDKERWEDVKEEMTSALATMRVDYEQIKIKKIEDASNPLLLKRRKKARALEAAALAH
T2 sequence (Q13177 whole entry): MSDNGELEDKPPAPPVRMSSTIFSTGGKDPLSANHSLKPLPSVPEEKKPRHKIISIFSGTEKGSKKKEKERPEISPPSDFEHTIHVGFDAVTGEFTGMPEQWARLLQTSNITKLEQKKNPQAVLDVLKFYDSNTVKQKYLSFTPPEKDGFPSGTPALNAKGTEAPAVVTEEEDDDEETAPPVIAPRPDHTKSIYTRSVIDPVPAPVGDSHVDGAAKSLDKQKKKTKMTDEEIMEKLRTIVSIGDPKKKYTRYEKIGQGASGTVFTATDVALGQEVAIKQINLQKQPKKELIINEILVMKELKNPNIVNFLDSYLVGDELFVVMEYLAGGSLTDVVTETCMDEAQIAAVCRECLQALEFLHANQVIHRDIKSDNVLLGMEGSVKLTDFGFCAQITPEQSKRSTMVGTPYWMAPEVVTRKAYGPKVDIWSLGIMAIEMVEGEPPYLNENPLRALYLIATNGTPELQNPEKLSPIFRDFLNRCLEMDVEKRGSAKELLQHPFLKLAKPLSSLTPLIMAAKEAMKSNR
T3 sequence (P00533 25-1210): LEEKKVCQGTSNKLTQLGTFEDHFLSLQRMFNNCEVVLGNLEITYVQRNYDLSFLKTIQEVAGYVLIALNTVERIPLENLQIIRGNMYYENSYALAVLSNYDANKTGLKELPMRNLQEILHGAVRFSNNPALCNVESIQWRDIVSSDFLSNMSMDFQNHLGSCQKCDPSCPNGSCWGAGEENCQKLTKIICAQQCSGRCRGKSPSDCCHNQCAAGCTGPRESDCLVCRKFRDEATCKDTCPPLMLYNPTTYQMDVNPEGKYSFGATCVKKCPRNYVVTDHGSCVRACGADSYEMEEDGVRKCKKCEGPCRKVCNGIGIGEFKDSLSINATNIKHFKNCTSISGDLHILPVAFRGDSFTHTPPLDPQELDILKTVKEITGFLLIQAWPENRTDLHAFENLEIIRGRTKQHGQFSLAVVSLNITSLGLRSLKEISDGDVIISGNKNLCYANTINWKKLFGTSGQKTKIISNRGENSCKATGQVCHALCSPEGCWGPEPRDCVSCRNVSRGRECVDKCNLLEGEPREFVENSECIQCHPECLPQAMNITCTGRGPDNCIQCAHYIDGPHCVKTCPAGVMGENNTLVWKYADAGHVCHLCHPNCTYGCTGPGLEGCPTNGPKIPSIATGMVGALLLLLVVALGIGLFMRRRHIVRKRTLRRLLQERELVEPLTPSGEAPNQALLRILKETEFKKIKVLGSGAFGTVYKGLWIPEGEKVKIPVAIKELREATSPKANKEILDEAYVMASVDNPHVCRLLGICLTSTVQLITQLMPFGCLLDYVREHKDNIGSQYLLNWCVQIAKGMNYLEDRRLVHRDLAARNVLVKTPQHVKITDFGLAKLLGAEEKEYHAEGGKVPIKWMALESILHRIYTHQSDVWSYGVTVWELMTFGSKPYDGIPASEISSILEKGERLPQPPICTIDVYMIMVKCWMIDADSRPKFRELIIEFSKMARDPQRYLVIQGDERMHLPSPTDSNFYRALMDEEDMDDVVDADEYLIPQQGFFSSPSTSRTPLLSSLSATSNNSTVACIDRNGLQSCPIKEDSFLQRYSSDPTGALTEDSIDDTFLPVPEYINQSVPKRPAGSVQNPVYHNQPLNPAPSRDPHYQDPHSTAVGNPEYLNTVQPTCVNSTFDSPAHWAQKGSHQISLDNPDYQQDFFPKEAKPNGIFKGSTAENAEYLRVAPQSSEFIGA
T4 sequence (P49336 whole entry): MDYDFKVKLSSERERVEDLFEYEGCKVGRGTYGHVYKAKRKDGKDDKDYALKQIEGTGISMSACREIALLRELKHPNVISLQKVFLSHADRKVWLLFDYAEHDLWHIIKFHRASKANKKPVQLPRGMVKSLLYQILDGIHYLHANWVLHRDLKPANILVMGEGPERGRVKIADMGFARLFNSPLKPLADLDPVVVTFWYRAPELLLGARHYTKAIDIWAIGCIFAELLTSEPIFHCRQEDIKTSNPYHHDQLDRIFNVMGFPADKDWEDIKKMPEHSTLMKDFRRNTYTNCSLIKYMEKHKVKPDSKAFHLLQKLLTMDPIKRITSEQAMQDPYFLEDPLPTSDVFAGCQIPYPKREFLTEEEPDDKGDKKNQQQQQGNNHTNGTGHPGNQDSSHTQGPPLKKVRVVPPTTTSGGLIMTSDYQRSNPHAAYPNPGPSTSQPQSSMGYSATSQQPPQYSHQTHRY
T4 sequence (P24863 whole entry partner): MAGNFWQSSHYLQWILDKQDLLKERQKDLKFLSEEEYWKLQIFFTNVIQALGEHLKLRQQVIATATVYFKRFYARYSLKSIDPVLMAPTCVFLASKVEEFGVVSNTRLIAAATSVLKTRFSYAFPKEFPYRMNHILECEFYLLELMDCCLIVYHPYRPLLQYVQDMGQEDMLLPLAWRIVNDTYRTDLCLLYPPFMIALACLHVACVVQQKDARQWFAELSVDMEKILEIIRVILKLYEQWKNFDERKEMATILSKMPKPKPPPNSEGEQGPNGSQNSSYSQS
T8 sequence (Q02750 whole entry): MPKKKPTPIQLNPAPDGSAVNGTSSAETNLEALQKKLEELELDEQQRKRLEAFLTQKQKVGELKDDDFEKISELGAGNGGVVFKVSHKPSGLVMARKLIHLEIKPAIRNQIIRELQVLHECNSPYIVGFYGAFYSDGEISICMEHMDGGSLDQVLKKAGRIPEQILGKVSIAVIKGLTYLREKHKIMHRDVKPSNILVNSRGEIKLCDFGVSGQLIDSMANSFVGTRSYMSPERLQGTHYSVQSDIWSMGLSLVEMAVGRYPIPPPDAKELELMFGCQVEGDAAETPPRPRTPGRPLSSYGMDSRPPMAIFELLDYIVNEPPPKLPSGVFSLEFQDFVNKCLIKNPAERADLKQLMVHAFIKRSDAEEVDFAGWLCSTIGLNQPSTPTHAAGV
T5 sequence (P53355 whole entry): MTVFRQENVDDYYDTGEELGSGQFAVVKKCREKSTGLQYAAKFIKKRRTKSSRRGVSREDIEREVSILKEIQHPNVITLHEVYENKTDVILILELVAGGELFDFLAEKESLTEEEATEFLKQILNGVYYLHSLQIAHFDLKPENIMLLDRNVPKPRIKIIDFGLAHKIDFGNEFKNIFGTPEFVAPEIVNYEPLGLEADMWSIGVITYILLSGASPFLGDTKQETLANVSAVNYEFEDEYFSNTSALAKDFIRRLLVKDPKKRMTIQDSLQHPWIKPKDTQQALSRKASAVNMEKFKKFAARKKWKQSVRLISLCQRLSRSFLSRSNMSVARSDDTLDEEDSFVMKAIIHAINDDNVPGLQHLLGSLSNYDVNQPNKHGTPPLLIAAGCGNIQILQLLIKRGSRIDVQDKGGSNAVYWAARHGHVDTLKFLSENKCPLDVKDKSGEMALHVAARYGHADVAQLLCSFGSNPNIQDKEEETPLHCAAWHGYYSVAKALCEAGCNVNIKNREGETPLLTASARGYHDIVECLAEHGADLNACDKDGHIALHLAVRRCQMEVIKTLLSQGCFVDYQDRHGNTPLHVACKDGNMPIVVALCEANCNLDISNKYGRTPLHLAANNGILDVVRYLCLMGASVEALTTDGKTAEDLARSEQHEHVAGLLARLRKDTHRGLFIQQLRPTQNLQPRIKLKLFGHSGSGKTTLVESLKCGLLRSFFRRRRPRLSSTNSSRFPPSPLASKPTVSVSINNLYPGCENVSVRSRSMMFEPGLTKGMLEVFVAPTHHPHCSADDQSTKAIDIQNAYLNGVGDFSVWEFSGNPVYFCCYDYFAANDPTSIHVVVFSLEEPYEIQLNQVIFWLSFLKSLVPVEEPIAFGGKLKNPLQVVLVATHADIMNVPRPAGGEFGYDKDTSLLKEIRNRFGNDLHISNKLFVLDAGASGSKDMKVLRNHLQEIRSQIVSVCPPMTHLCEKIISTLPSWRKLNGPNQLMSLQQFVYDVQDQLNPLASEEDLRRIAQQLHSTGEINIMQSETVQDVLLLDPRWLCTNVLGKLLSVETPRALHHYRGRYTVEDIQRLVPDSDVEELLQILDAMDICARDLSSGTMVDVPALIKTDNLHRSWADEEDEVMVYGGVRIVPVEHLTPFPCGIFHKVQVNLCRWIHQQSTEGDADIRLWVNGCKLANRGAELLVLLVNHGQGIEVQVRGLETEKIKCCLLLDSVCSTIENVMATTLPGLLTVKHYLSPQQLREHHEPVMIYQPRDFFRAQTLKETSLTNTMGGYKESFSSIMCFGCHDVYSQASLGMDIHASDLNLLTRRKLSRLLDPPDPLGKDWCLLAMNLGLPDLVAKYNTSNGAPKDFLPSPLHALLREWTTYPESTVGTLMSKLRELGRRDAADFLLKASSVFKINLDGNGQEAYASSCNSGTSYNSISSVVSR

As to `c1ccc2c(-c3cnn4cc(-c5ccc(N6CCNCC6)cc5)cnc34)ccnc2c1` [LDN-193189, reference compound], the inhibition at 0.1 µM on MAPKAPK2 was 0.06%; on PAK2 it was -2.66%; at EGFR it was 2.46%; at CDK8_cyclinC, -1.99%; at DAPK1 it was 11.3%; on GSG2, -5.75%. Besides, the values for the inhibition at 0.1 µM at DCLK2 and at MAP2K1 were 9.12% and 11.1%, respectively.

`CN1CCc2cccc(c2)Nc2nccc(n2)N2CCCc3cc(ccc32)C1` [OD16]: the inhibition at 0.1 µM was -14.6% at MAPKAPK2; -27.1% at PAK2; -13% on EGFR; -16.6% at CDK8_cyclinC; -6.59% at DAPK1; 6.26% on GSG2. Moreover, the inhibition at 0.1 µM on DCLK2 was -2.18%; on MAP2K1 it was 5.48%.

Turning to `CN1CCC(=O)NCCNc2ccn3ncc(c3n2)-c2cccc(c2)C1` [OD29], the inhibition at 0.1 µM on MAPKAPK2 was -4.8%; on PAK2 it was 7.91%; on EGFR, -8.91%; on CDK8_cyclinC it was -9.32%; at DAPK1, -3.89%; on GSG2 it was 34.6%. Besides, the figures for the inhibition at 0.1 µM on DCLK2 and at MAP2K1 were -15.9% and 7.68%, respectively.
